Earlier results on one molecule are cited in patent US20200392071A1, “Gene cluster for the biosynthetic production of tetracycline compounds in a heterologous host” (HELMHOLTZ-ZENTRUM FÜR INFEKTIONSFORSCHUNG GMBH, priority 2017, published 2020).

Each structure is given as a SMILES string.

Data set [1] has as its system tetracycline-resistant pathogens. The conditions noted are these: Proctor et al. 1978.
The next data set has as its system Gram-negative pathogens. As to conditions: patients with urinary tract infections caused by Gram-negative pathogens; Molnar et al. 1977.

In the case of `CC(=O)C1=C(O)C(N)C2Cc3c(c(O)c4c(O)c(C)ccc4c3C)C(=O)C2(O)C1=O` (centres unmarked) [chelocardin, Chelocardin], in data set [1], the “activity against tetracycline-resistant pathogens” value is reported as “active”. For the same molecule, the “outcome in a small phase II clinical study” value in the data set on Gram-negative pathogens is “promising”.
